This is an account of results in patent US20230416205A1, “COMPOUNDS, COMPOSITIONS, AND METHODS” (Denali Therapeutics Inc, priority 2020, published 2023).

In this test the test system is NLRP3. In words: IL-1β secretion assay in PMA-differentiated, LPS/nigericin-stimulated THP-1 cells (384-well, ELISA read-out). Format: cell-based, human. An outline of the steps:
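THP-1 cells differentiated with PMA (5 ng/mL, 40 h), primed in serum-free medium with 25 ng/mL LPS for 2 h, treated with compounds 1 h (0.5% DMSO), then stimulated with nigericin for 2 h at 37 °C. Supernatant IL-1β measured by ELISA; responses normalized to LPS+5 μM nigericin and LPS-only controls.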

Setting [1] is: Homo sapiens, THP-1, IL-1β secretion, PMA-differentiated THP-1 cells, LPS then nigericin stimulation, ELISA read at 450 nm, read-out: Activity.
The mark [2] stands for this setting: Homo sapiens, THP-1, Table 4, IL-1β secretion, LPS/nigericin-stimulated THP-1 cells, read-out: IC50.
The mark [3] stands for this setting: Table 4, IL-1β secretion, LPS/nigericin-stimulated THP-1 cells, read-out: IC50.

SMILES strings stand for the structures. Where two headings read alike, the source gives them in different places.

`O=C(CN1CC2(CC2)c2cc(Br)ccc2C1=O)NCc1ncco1` [Example 119, 2-(6-bromo-1-oxospiro[3H-isoquinoline-4,1′-cyclopropane]-2-yl)-N-(1,3-oxazol-2-ylmethyl)acetamide]: the IC50 was over 15 µM under setting [1] and 30.1 µM under setting [2].

Consider `O=C(CN1CC2(CC2)c2cc(Br)ccc2C1=O)NC1Cc2ccccc2C1` [Example 129, 2-(6-bromo-1-oxospiro[3H-isoquinoline-4,1′-cyclopropane]-2-yl)-N-(2,3-dihydro-1H-inden-2-yl)acetamide], for which the IC50 runs as follows: under setting [1], under 10 µM; under setting [2], 7.2 µM.

For `O=C(CN1CC2(CC2)c2cc(Br)ccc2C1=O)Nc1ccc2ncccc2c1` [Example 130, 2-(6-bromo-1-oxospiro[3H-isoquinoline-4,1′-cyclopropane]-2-yl)-N-quinolin-6-ylacetamide], the IC50 reads like this: under setting [1], under 10 µM; under setting [2], 1.23 µM.

For the molecule `O=C(CN1CC2(CC2)c2cc(Br)ccc2C1=O)Nc1noc2ccccc12` [Example 377, N-(1,2-benzoxazol-3-yl)-2-(6-bromo-1-oxospiro[3H-isoquinoline-4,1′-cyclopropane]-2-yl)acetamide], the IC50 under setting [2] was 2.25 µM.

For `O=C(CN1CC2(CC2)c2cc(Br)ccc2C1=O)Nc1nn2ccccc2c1F` [Example 403, 2-(6-bromo-1-oxospiro[3H-isoquinoline-4,1′-cyclopropane]-2-yl)-N-(3-fluoropyrazolo[1,5-a]pyridin-2-yl)acetamide], the IC50 under setting [2] turned out to be 2.32 µM.

Regarding `O=C(CN1CC2(CC2)c2cc(Br)ccc2C1=O)Nc1nc2ccccn2n1` [Example 181], the IC50 was under 10 µM under setting [1] and 0.143 µM under setting [2].

Consider `O=C(CN1CC2(CC2)c2cc(Br)ccc2C1=O)Nc1ccc2ocnc2c1` [Example 173, N-(1,3-benzoxazol-5-yl)-2-(6-bromo-1-oxospiro[3H-isoquinoline-4,1′-cyclopropane]-2-yl)acetamide], for which the IC50 under setting [1] is under 10 µM and the IC50 under setting [2] worked out at 2.3 µM.

With `CS(=O)(=O)NCCNC(=O)CN1CC2(CC2)c2cc(Br)ccc2C1=O` [Example 137, 2-(6-bromo-1-oxospiro[3H-isoquinoline-4,1′-cyclopropane]-2-yl)-N-[2-(methanesulfonamido)ethyl]acetamide], the IC50 was over 15 µM under setting [1] and 21.9 µM under setting [2].

Consider `O=C(CN1CC2(CC2)c2cc(Br)ccc2C1=O)NC1CCn2nccc2C1` (centres unmarked) [Example 20], for which the IC50 runs as follows: under setting [1], under 10 µM; under setting [2], 3.19 µM.

For `CCc1cnc(NC(=O)CN2CC3(CC3)c3cc(Br)ccc3C2=O)nc1` [Example 204, 2-(6-bromo-1-oxospiro[3H-isoquinoline-4,1′-cyclopropane]-2-yl)-N-(5-ethylpyrimidin-2-yl)acetamide], the IC50 under setting [1] is under 10 µM and the IC50 under setting [2] came to 0.646 µM.

For `Cc1cc(NC(=O)CN2CC3(CC3)c3cc(Br)ccc3C2=O)nc(C)n1` [Example 216, 2-(6-bromo-1-oxospiro[3H-isoquinoline-4,1′-cyclopropane]-2-yl)-N-(2,6-dimethylpyrimidin-4-yl)acetamide], the IC50 is, setting by setting: under setting [1], under 10 µM; under setting [2], 3.98 µM.

Regarding `O=C(CN1CC2(CC2)c2cc(Br)ccc2C1=O)Nc1ccc(-c2nnn[nH]2)cc1` [Example 172, 2-(6-bromo-1-oxospiro[3H-isoquinoline-4,1′-cyclopropane]-2-yl)-N-[4-(1H-tetrazol-5-yl)phenyl]acetamide], the IC50 reads like this: under setting [1], over 15 µM; under setting [2], 23.7 µM.

As for `O=C(CN1C[C@@]2(C[C@@H]2Cl)c2cc(Br)ccc2C1=O)Nc1ncc(F)cn1` (single isomer, unassigned) [Example 283, 2-[(2′r,4s)-6-bromo-2′-chloro-1-oxospiro[3H-isoquinoline-4,1′-cyclopropane]-2-yl]-N-(5-fluoropyrimidin-2-yl)acetamide], the IC50 runs as follows: under setting [1], under 10 µM; under setting [3], 0.101 µM.

`CN1CCC(NC(=O)CN2CC3(CC3)c3cc(Br)ccc3C2=O)CC12CC2` (centres unmarked) [Example 370, 2-(6-bromo-1-oxospiro[3H-isoquinoline-4,1′-cyclopropane]-2-yl)-N-(4-methyl-4-azaspiro[2.5]octan-7-yl)acetamide]: the IC50 under setting [2] was 5.97 µM.

Consider `O=C(CN1CC2(CC2)c2cc(Br)ccc2C1=O)N[C@H]1C[C@H](C(F)(F)F)C1` [Example 54, 2-(6-bromo-1-oxo-spiro[3H-isoquinoline-4,1′-cyclopropane]-2-yl)-N-[trans-3-(trifluoromethyl)cyclobutyl]acetamide], for which the IC50 reads like this: under setting [1], under 10 µM; under setting [2], 1.55 µM.

In the case of `COC1(C)CC(NC(=O)CN2CC3(CC3)c3cc(Br)ccc3C2=O)C1` (stereo not drawn) [Example 340, 2-(6-bromo-1-oxospiro[3H-isoquinoline-4,1′-cyclopropane]-2-yl)-N-(3-trans-methoxy-3-methylcyclobutyl)acetamide], the IC50 under setting [3] stood at 7.87 µM.

For `Cc1cc(C#N)cnc1NC(=O)CN1CC2(CC2)c2cc(Br)ccc2C1=O` [Example 397, 2-(6-bromo-1-oxospiro[3H-isoquinoline-4,1′-cyclopropane]-2-yl)-N-(5-cyano-3-methylpyridin-2-yl)acetamide], the IC50 under setting [2] stood at 2 µM.
